US7704993B2, “Benzazepine derivatives and methods of prophylaxis or treatment of 5ht2c receptor associated diseases” (Arena Pharmaceuticals, Inc., priority 2003, dated 2010)

How the values were obtained:
human 5HT2C receptor = biological target: T1, human 5HT2C receptor (Homo sapiens, UniProt P28335); assay: Intracellular IP3 Accumulation Assay; assay type: cell-based; settings: HEK293 cells transfected with human 5HT2C receptor cDNA; read-out: 5HT2C (IC50) IP Accumulation Assay
T1 construct: expressed in transfected cells; host or cells: HEK293 cells, transient transfection with lipofectamine
T1 sequence (P28335 33-458): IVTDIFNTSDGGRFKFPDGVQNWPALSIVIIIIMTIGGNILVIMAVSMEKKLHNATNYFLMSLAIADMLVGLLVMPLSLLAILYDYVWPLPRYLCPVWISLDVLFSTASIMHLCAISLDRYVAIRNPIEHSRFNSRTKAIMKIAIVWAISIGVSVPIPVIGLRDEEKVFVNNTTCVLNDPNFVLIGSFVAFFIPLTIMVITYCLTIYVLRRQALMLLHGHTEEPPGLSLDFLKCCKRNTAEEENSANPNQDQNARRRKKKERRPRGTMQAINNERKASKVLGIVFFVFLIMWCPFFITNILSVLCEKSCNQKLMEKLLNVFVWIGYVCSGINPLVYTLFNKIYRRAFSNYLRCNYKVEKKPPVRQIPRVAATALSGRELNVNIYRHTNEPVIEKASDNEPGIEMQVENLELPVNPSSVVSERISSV
Method: Intracellular IP3 Accumulation Assay:
HEK293 cells were transfected in 15 cm sterile dishes with or without (control) 16 ug of human 5HT2C receptor cDNA [for example see, Saltzman, A. G., et al. Biochem. Biophys. Res. Commun. 181, 1469-1478 (1991)] using 25 ul of lipofectamine. Cells were then incubated for 3-4 hours at 37° C./5% CO2 and then transfection media was removed and replaced with 100 ul of DMEM. Cells were then plated onto 100 cm sterile dishes. The next day cells were plated into 96 well PDL microtiter plates at a density of 55 K/0.2 ml. Six hours latter, media was exchanged with [^3H]inositol (0.25 uCi/well) in inositol free DMEM and plates were incubated at 37° C./5% CO2 overnight. The next day, wells were aspirated and 200 ul of DMEM containing test compound, 10 uM pargyline, and 10 mM LiCl was added to appropriate wells. Plates were then incubated at 37° C./5% CO2 for three hours followed aspiration and by addition of fresh ice cold stop solution (1M KOH, 19 mM Na-borate, 3.8 mM EDTA) to each well. Plates were kept on ice for 5-10 min and the wells were neutralized by addition of 200 ul of fresh ice cold neutralization solution (7.5% HCl). Plates were then frozen until further processing is desired. The lysate was then transferred into 1.5 ml Eppendorf tubes and 1 ml of chloroform/methanol (1:2) was added/tube. […]

[1] = test system: amyloid precursor protein (APPs) secretion / Aβ production; settings: guinea pigs, repeat administration; cited from earlier work

Row | Structure (SMILES) | IC50 (human 5HT2C receptor) [nM] | amyloid precursor protein (APPs) secretion [1] | levels of Aβ production in vivo [1]
1 | CC1CNCCc2c(Cl)cc(Cl)cc21 (racemic) [Compound 1, (R,S) 6,8-Dichloro-1-methyl-2,3,4,5-tetrahydro-1H-3-benzazepine] | 11.7 | – | –
2 | C[C@H](N)Cc1cccc(C(F)(F)F)c1 [dexnorfenfluramine (DEXNOR), dexnorfenfluramine] | – | stimulated | reducing
3 | CC1CNCCc2ccc(Cl)c(F)c21 (racemic) [Compound 3, (R,S) 8-Chloro-9-fluoro-1-methyl-2,3,4,5-tetrahydro-1H-3-benzazepine] | 24.5 | – | –
